According to patent US6737383B1, “Herbicidal oxadiazolidines” (priority 1999, dated 2004):

Legend:
giant foxtail = test: Test B pre/postemergence giant foxtail; type: in vivo, Setaria faberii
Method in brief: (§1)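 Response is a visual 0-to-10 score relative to untreated plants, where 0 means no effect and 10 means complete control, taken twelve to sixteen days after application. Treatments went onto soil at planting and onto foliage of 1- to 4-leaf plants, using a surfactant-containing non-phytotoxic solvent.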

surinam grass = test: Test B pre/postemergence surinam grass; type: in vivo, Brachiaria decumbens
Method in brief: as §1

rice = test: Test B flood test rice; type: in vivo, Oryza sativa
Method in brief: (§2)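 Each value is a visual injury score relative to controls, with 10 meaning complete control and 0 no effect. Evaluation took place twelve to sixteen days after the 2-leaf-stage plants were treated and kept in the greenhouse.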

pigweed = test: Test B pre/postemergence pigweed; type: in vivo, Amaranthus retroflexus; details: for Redroot pigweed plant response rating: Postemergence; for Plant response rating, Redroot pigweed: Preemergence
Method in brief: as §1

duck salad = test: Test B flood test duck salad; type: in vivo, Heteranthera limosa
Method in brief: as §2

sugar beet = test: Test B pre/postemergence sugar beet; type: in vivo, Beta vulgaris
Method in brief: as §1

cocklebur = test: Test B pre/postemergence cocklebur; type: in vivo, Xanthium strumarium
Method in brief: as §1

wild oat = test: Test B pre/postemergence wild oat; type: in vivo, Avena fatua
Method in brief: as §1

bamyardgrass = test: Test B flood test barnyardgrass; type: in vivo, Echinochloa crus-galli
Method in brief: as §2

wheat = test: Test B pre/postemergence wheat; type: in vivo, Triticum aestivum
Method in brief: as §1

crabgrass = test: Test B pre/postemergence crabgrass; type: in vivo, Digitaria sanguinalis
Method in brief: as §1

rape = test: Test B pre/postemergence rape; type: in vivo, Brassica napus
Method in brief: as §1

morningglory = test: Test B pre/postemergence morningglory; type: in vivo, Ipomoea hederacea
Method in brief: as §1

smallflower flatsedge = test: Test B flood test smallflower flatsedge; type: in vivo, Cyperus difformis
Method in brief: as §2

corn = test: Test B pre/postemergence corn; type: in vivo, Zea mays
Method in brief: as §1

purple nutsedge = test: Test B pre/postemergence purple nutsedge; type: in vivo, Cyperus rotundus
Method in brief: as §1

[1] = Postemergence, Rate 62 g/ha, scale 0 to 10, 0 is no effect, 10 is complete control
[2] = Postemergence, Rate 250 g/ha, scale 0 to 10, 0 no effect, 10 complete control
[3] = Preemergence, Rate 62 g/ha, scale 0 to 10, 0 is no effect, 10 is complete control
[4] = Preemergence, Rate 125 g/ha, scale 0 to 10 (0 no effect, 10 complete control)
[5] = Preemergence, Rate 250 g/ha, scale of 0 to 10 where 0 is no effect and 10 is complete control
[6] = Preemergence, Rate 500 g/ha, scale 0 (no effect) to 10 (complete control)
[7] = Rate 125 g/ha, Postemergence, scale 0 to 10, 0 no effect, 10 complete control
[8] = Rate 500 g/ha, Postemergence, 0 to 10 scale (0 no effect, 10 complete control)
[9] = Rate 125 g/ha, Postemergence section (flood test species), scale 0 to 10, 0 no effect, 10 complete control
[10] = Rate 500 g/ha, Postemergence section of Table B, 0 to 10 scale (0 no effect, 10 complete control)
[11] = flood test, listed under Postemergence, Rate 250 g/ha, scale 0 to 10, 0 no effect, 10 complete control
[12] = Rate 62 g/ha, scale 0 to 10, 0 is no effect, 10 is complete control

Structure (SMILES): CC(C)N(C(=O)n1oc(=O)n(-c2c(Cl)cccc2Cl)c1=O)c1ccc(F)cc1 [Compound 19]
- Giant foxtail plant response rating (giant foxtail; [1]): 0
- Giant foxtail plant response rating (giant foxtail; [2]): 0
- Plant response rating, Giant foxtail (giant foxtail; [3]): 0
- Plant response rating, Giant foxtail (giant foxtail; [4]): 2
- Plant response rating, Giant foxtail (giant foxtail; [5]): 4
- Giant foxtail plant response rating (giant foxtail; [6]): 5
- Giant foxtail plant response rating (giant foxtail; [7]): 0
- Giant foxtail plant response rating (giant foxtail; [8]): 1
- B. signalgrass plant response rating (surinam grass; [1]): 0
- B. signalgrass plant response rating (surinam grass; [2]): 0
- Plant response rating, B. signalgrass (surinam grass; [3]): 0
- Plant response rating, B. signalgrass (surinam grass; [4]): 2
- Plant response rating, B. signalgrass (surinam grass; [5]): 2
- B. signalgrass plant response rating (surinam grass; [6]): 2
- B. signalgrass plant response rating (surinam grass; [7]): 0
- B. signalgrass plant response rating (surinam grass; [8]): 0
- Rice plant response rating (rice; [1]): 0
- Rice plant response rating (rice; [9]): 0
- Rice plant response rating (rice; [10]): 0
- Rice plant response rating (rice; [11]): 0
- Redroot pigweed plant response rating (pigweed; [12]): 0
- Redroot pigweed plant response rating (pigweed; Rate 250 g/ha, scale 0 to 10, 0 no effect, 10 complete control): 2
- Plant response rating, Redroot pigweed (pigweed; [12]): 0
- Plant response rating, Redroot pigweed (pigweed; Rate 125 g/ha, scale 0 to 10 (0 no effect, 10 complete control)): 0
- Plant response rating, Redroot pigweed (pigweed; Rate 250 g/ha, scale of 0 to 10 where 0 is no effect and 10 is complete control): 2
- Redroot pigweed plant response rating (pigweed; Rate 125 g/ha, scale 0 to 10, 0 no effect, 10 complete control): 0
- Redroot pigweed plant response rating (pigweed; Rate 500 g/ha, 0 to 10 scale (0 no effect, 10 complete control)): 5
- Ducksalad plant response rating (duck salad; [1]): 0
- Ducksalad plant response rating (duck salad; [9]): 0
- Ducksalad plant response rating (duck salad; [10]): 0
- Ducksalad plant response rating (duck salad; [11]): 0
- Sugarbeets plant response rating (sugar beet; [1]): 0
- Sugarbeets plant response rating (sugar beet; [2]): 0
- Plant response rating, Sugarbeets (sugar beet; [3]): 0
- Plant response rating, Sugarbeets (sugar beet; [4]): 0
- Plant response rating, Sugarbeets (sugar beet; [5]): 1
- Sugarbeets plant response rating (sugar beet; [6]): 2
- Sugarbeets plant response rating (sugar beet; [7]): 0
- Cocklebur plant response rating (cocklebur; [1]): 0
- Cocklebur plant response rating (cocklebur; [2]): 0
- Plant response rating, Cocklebur (cocklebur; [3]): 0
- Plant response rating, Cocklebur (cocklebur; [5]): 0
- Cocklebur plant response rating (cocklebur; [6]): 0
- Cocklebur plant response rating (cocklebur; [7]): 0
- Cocklebur plant response rating (cocklebur; [8]): 0
- Wild oats plant response rating (wild oat; [1]): 0
- Wild oats plant response rating (wild oat; [2]): 0
- Plant response rating, Wild oats (wild oat; [4]): 0
- Plant response rating, Wild oats (wild oat; [5]): 0
- Wild oats plant response rating (wild oat; [6]): 0
- Wild oats plant response rating (wild oat; [7]): 0
- Barnyardgrass plant response rating (bamyardgrass; [1]): 0
- Barnyardgrass plant response rating (bamyardgrass; [9]): 0
- Barnyardgrass plant response rating (bamyardgrass; [10]): 0
- Barnyardgrass plant response rating (bamyardgrass; [11]): 0
- Wheat plant response rating (wheat; [1]): 0
- Wheat plant response rating (wheat; [2]): 0
- Plant response rating, Wheat (wheat; [3]): 0
- Plant response rating, Wheat (wheat; [4]): 0
- Plant response rating, Wheat (wheat; [5]): 0
- Wheat plant response rating (wheat; [6]): 0
- Wheat plant response rating (wheat; [7]): 0
- Crabgrass plant response rating (crabgrass; [1]): 0
- Crabgrass plant response rating (crabgrass; [2]): 0
- Plant response rating, Crabgrass (crabgrass; [3]): 3
- Plant response rating, Crabgrass (crabgrass; [4]): 5
- Plant response rating, Crabgrass (crabgrass; [5]): 7
- Crabgrass plant response rating (crabgrass; [6]): 10
- Crabgrass plant response rating (crabgrass; [7]): 0
- Rape plant response rating (rape; [1]): 0
- Rape plant response rating (rape; [2]): 0
- Plant response rating, Rape (rape; [3]): 0
- Plant response rating, Rape (rape; [4]): 0
- Plant response rating, Rape (rape; [5]): 0
- Rape plant response rating (rape; [6]): 3
- Rape plant response rating (rape; [7]): 0
- Rape plant response rating (rape; [8]): 0
- Morningglory plant response rating (morningglory; [1]): 0
- Morningglory plant response rating (morningglory; [2]): 0
- Plant response rating, Morningglory (morningglory; [3]): 0
- Plant response rating, Morningglory (morningglory; [4]): 0
- Plant response rating, Morningglory (morningglory; [5]): 0
- Morningglory plant response rating (morningglory; [6]): 0
- Morningglory plant response rating (morningglory; [7]): 0
- Morningglory plant response rating (morningglory; [8]): 2
- S. Flatsedge plant response rating (smallflower flatsedge; [1]): 0
- S. Flatsedge plant response rating (smallflower flatsedge; [9]): 0
- S. Flatsedge plant response rating (smallflower flatsedge; [11]): 0
- Corn plant response rating (corn; [1]): 0
- Corn plant response rating (corn; [2]): 0
- Plant response rating, Corn (corn; [3]): 0
- Plant response rating, Corn (corn; [4]): 0
- Plant response rating, Corn (corn; [5]): 0
- Corn plant response rating (corn; [6]): 0
- Corn plant response rating (corn; [7]): 0
- Corn plant response rating (corn; [8]): 0
- Nutsedge plant response rating (purple nutsedge; [1]): 0
- Nutsedge plant response rating (purple nutsedge; [2]): 0
- Plant response rating, Nutsedge (purple nutsedge; [3]): 0
- Plant response rating, Nutsedge (purple nutsedge; [4]): 0
- Plant response rating, Nutsedge (purple nutsedge; [5]): 0
- Nutsedge plant response rating (purple nutsedge; [6]): 0
- Nutsedge plant response rating (purple nutsedge; [7]): 0
- Nutsedge plant response rating (purple nutsedge; [8]): 0
